Experimental data from patent publication US5945508A, “Substance P treatment for immunostimulation” (priority 1997, dated 1999).

How the values were obtained:
immune system organs = experiment: Organ weight and total cell recovery; format: in vivo, C57B16 mice; parameters: Spleen Cell Number / Thymus Cell Number / LN Cell Number / BM Cell Number: scale not given here; Spleen Weight / Thymus Weight: unit not given here
Description: (§1) At 24 hours after the last exposure, the animals were sacrificed and the effects of exposure on the immune system examined. Immune organs (spleen, thymus, blood, lymph nodes and bone marrow) were recovered and analyzed for effects on organ weight, total cell numbers, immune cell populations (by differentials), and lymphocyte subpopulations (by flow cytometry). Assays were also performed to examine the effects of exposure on immune function. […] Similar effects on immune cell subpopulations were also observed in lymph nodes. In the thymus it appeared that the immature CD4^+ CD8^+ cells were differentially lost due to exposure. […] However, these effects are prevented or ameliorated by treatment of the animals with Substance P.
For each of the immune system organs (spleen, lymph nodes and thymus) the wet weight is determined after removal using a microbalance. After processing of the organs into single cell suspensions the cell numbers and viabilities are determined using trypan blue staining. Histochemical differentials are performed at this time. Cell numbers and viabilities are again determined after centrifugation of the cell suspensions through density gradients to obtain mononuclear cells.

[1] = system: lymphocyte subpopulations; experiment: Flow cytometric analyses (FACS); format: in vivo, C57B16 mice
Description: as §1
One- and two-color FACS analyses are performed using a Becton-Dickinson FACStar Plus flow cytometer. Cells are stained with the indicated monoclonal antibodies according to standard procedures (Harris et al., id). Cells alone and cells reacted with conjugated isotype control, irrelevant mAbs are used as controls. Data is presented as the percentage of cells staining positive for each individual mAb.

[2] = JP-8 1000 mg/m^3 + SP, nSP (1 nM), CP or RP

COc1ccccc1CN[C@H]1C2CCN(CC2)[C@H]1C(c1ccccc1)c1ccccc1 [CP, reference compound]
BM Cell Number (immune system organs; [2]): 22
LN Cell Number (immune system organs; [2]): 7.1
Spleen Cell Number (immune system organs; [2]): 7
Spleen Weight (immune system organs; [2]): 0.16
Thymus Cell Number (immune system organs; [2]): 75
Thymus Weight (immune system organs; [2]): 0.12
BM Cell Number (immune system organs; dose 0 (no JP-8) + SP or CP): 29
LN Cell Number (immune system organs; dose 0 (no JP-8) + SP or CP): 9.8
Spleen Cell Number (immune system organs; dose 0 (no JP-8) + SP or CP): 16
Spleen Weight (immune system organs; dose 0 (no JP-8) + SP or CP): 0.12
Thymus Cell Number (immune system organs; dose 0 (no JP-8) + SP or CP): 50
Thymus Weight (immune system organs; dose 0 (no JP-8) + SP or CP): 0.12
BM CD3 positive cells [1, 2]: 14%
BM CD4 positive cells [1, 2]: 7%
BM CD8 positive cells [1, 2]: 3%
BM CD45 positive cells [1, 2]: 41%
BM MAC1 positive cells [1, 2]: 26%
LN CD3 positive cells [1, 2]: 95%
LN CD4 positive cells [1, 2]: 35%
LN CD8 positive cells [1, 2]: 23%
PBL CD3 positive cells [1, 2]: 50%
PBL CD4 positive cells [1, 2]: 20%
PBL CD8 positive cells [1, 2]: 15%
PBL CD45 positive cells [1, 2]: 27%
PBL MAC1 positive cells [1, 2]: 6%
Spleen CD3 positive cells [1, 2]: 34%
Spleen CD4 positive cells [1, 2]: 16%
Spleen CD8 positive cells [1, 2]: 9%
Spleen CD45 positive cells [1, 2]: 26%
Spleen MAC1 positive cells [1, 2]: 10%
Thymus CD3 positive cells [1, 2]: 17%
Thymus DN cells [1, 2]: 12%
Thymus DP cells [1, 2]: 65%
Thymus SP4 cells [1, 2]: 17%
Thymus SP8 cells [1, 2]: 7%
BM CD3 positive cells ([1]; dose 0 (no JP-8) + SP or CP): 16%
BM CD4 positive cells ([1]; dose 0 (no JP-8) + SP or CP): 9%
BM CD8 positive cells ([1]; dose 0 (no JP-8) + SP or CP): 7%
BM CD45 positive cells ([1]; dose 0 (no JP-8) + SP or CP): 27%
BM MAC1 positive cells ([1]; dose 0 (no JP-8) + SP or CP): 33%
LN CD3 positive cells ([1]; dose 0 (no JP-8) + SP or CP): 49%
LN CD4 positive cells ([1]; dose 0 (no JP-8) + SP or CP): 25%
LN CD8 positive cells ([1]; dose 0 (no JP-8) + SP or CP): 12%
LN CD45 positive cells ([1]; dose 0 (no JP-8) + SP or CP): 15%
LN MAC1 positive cells ([1]; dose 0 (no JP-8) + SP or CP): 1%
PBL CD3 positive cells ([1]; dose 0 (no JP-8) + SP or CP): 72%
PBL CD4 positive cells ([1]; dose 0 (no JP-8) + SP or CP): 29%
PBL CD8 positive cells ([1]; dose 0 (no JP-8) + SP or CP): 13%
PBL CD45 positive cells ([1]; dose 0 (no JP-8) + SP or CP): 12%
PBL MAC1 positive cells ([1]; dose 0 (no JP-8) + SP or CP): 7%
Spleen CD3 positive cells ([1]; dose 0 (no JP-8) + SP or CP): 32%
Spleen CD4 positive cells ([1]; dose 0 (no JP-8) + SP or CP): 21%
Spleen CD8 positive cells ([1]; dose 0 (no JP-8) + SP or CP): 7%
Spleen CD45 positive cells ([1]; dose 0 (no JP-8) + SP or CP): 24%
Spleen MAC1 positive cells ([1]; dose 0 (no JP-8) + SP or CP): 3%
Thymus CD3 positive cells ([1]; dose 0 (no JP-8) + SP or CP): 18%
Thymus DN cells ([1]; dose 0 (no JP-8) + SP or CP): 13%
Thymus DP cells ([1]; dose 0 (no JP-8) + SP or CP): 75%
Thymus SP4 cells ([1]; dose 0 (no JP-8) + SP or CP): 12%
Thymus SP8 cells ([1]; dose 0 (no JP-8) + SP or CP): 3%

COc1ccccc1CC(=N)N1C[C@@H]2C(=O)CCC(c3ccccc3)(c3ccccc3)[C@@H]2C1 [RP, reference compound]
BM Cell Number (immune system organs; [2]): 27
LN Cell Number (immune system organs; [2]): 6.8
Spleen Cell Number (immune system organs; [2]): 37
Spleen Weight (immune system organs; [2]): 0.10
Thymus Cell Number (immune system organs; [2]): 72
Thymus Weight (immune system organs; [2]): 0.03
BM CD3 positive cells [1, 2]: 12%
BM CD4 positive cells [1, 2]: 6%
BM CD8 positive cells [1, 2]: 5%
BM CD45 positive cells [1, 2]: 42%
BM MAC1 positive cells [1, 2]: 10%
LN CD3 positive cells [1, 2]: 96%
LN CD4 positive cells [1, 2]: 41%
LN CD8 positive cells [1, 2]: 29%
LN CD45 positive cells [1, 2]: 18%
LN MAC1 positive cells [1, 2]: 1%
PBL CD3 positive cells [1, 2]: 71%
PBL CD4 positive cells [1, 2]: 18%
PBL CD8 positive cells [1, 2]: 10%
PBL CD45 positive cells [1, 2]: 38%
PBL MAC1 positive cells [1, 2]: 9%
Spleen CD3 positive cells [1, 2]: 47%
Spleen CD4 positive cells [1, 2]: 16%
Spleen CD8 positive cells [1, 2]: 5%
Spleen CD45 positive cells [1, 2]: 39%
Spleen MAC1 positive cells [1, 2]: 1%
Thymus CD3 positive cells [1, 2]: 16%
Thymus DN cells [1, 2]: 10%
Thymus DP cells [1, 2]: 70%
Thymus SP4 cells [1, 2]: 12%
Thymus SP8 cells [1, 2]: 8%

nSP: 1 nanomolar substance P
BM Cell Number (immune system organs; [2]): 31
LN Cell Number (immune system organs; [2]): 10.8
Spleen Cell Number (immune system organs; [2]): 58
Spleen Weight (immune system organs; [2]): 0.11
Thymus Cell Number (immune system organs; [2]): 78
Thymus Weight (immune system organs; [2]): 0.04
BM CD3 positive cells [1, 2]: 13%
BM CD4 positive cells [1, 2]: 10%
BM CD8 positive cells [1, 2]: 3%
BM CD45 positive cells [1, 2]: 43%
BM MAC1 positive cells [1, 2]: 16%
LN CD3 positive cells [1, 2]: 95%
LN CD4 positive cells [1, 2]: 42%
LN CD8 positive cells [1, 2]: 25%
LN CD45 positive cells [1, 2]: 23%
LN MAC1 positive cells [1, 2]: 0%
PBL CD3 positive cells [1, 2]: 78%
PBL CD4 positive cells [1, 2]: 25%
PBL CD8 positive cells [1, 2]: 8%
PBL CD45 positive cells [1, 2]: 29%
PBL MAC1 positive cells [1, 2]: 2%
Spleen CD3 positive cells [1, 2]: 60%
Spleen CD4 positive cells [1, 2]: 15%
Spleen CD8 positive cells [1, 2]: 5%
Spleen CD45 positive cells [1, 2]: 41%
Spleen MAC1 positive cells [1, 2]: 1%
Thymus CD3 positive cells [1, 2]: 25%
Thymus DN cells [1, 2]: 7%
Thymus DP cells [1, 2]: 69%
Thymus SP4 cells [1, 2]: 16%
Thymus SP8 cells [1, 2]: 7%
